According to US9790169B2, “IDO inhibitors” (BRISTOL-MYERS SQUIBB COMPANY, priority 2015, dated 2017):
Values joined by “and” are separate entries in the source; they are usually repeats but may differ in a detail not shown here. Identical values can stand only once.

Biological target: human IDO1 (Homo sapiens, UniProt P14902)
Test: Assessment of human IDO-1 inhibitory activity in Hela cells (Interferon-gamma stimulated HeLa cells, Ehrlich reagent, absorbance 490 nm)
Assay type: cell-based
Set-up: endogenous in cells; host or cells: HeLa cells stimulated with interferon-gamma
Details: Hela Human IDO-1 cellular assay
How it was run: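 HeLa cells pre-incubated with compound 1 h at 37 °C, then stimulated with human IFN-γ (10 ng/ml final) or murine IFN-γ (5 ng/ml final) for 18 h. Kynurenine read with Ehrlich reagent at 490 nm after TCA (3%) and 50 °C treatment; IC50 normalized to unstimulated (100%) and IFN-γ-only (0%) wells.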

Sequence of human IDO1 (P14902 whole entry): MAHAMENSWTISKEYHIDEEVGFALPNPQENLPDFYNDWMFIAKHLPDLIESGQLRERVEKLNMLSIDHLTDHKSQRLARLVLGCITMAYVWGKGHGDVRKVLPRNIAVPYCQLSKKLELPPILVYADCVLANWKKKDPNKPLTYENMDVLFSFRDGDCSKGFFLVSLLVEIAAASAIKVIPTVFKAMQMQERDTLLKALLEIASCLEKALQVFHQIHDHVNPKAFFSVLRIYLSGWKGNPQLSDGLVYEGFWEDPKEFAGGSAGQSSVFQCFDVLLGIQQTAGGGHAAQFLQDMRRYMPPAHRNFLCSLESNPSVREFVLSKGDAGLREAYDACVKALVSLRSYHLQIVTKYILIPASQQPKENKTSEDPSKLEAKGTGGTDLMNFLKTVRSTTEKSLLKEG

IC50 | Structure (SMILES)
< 5 nM | CC[C@@H](CC(=O)O)c1ccc(N(CC)C2CCOCC2)c(Nc2ccc(C#N)cn2)c1 (single isomer, unassigned) [Example 461]
> 50 nM | CCN(c1ccc(C2(CC(=O)O)CCOCC2)cc1NC(=O)Nc1ccc(C)cc1)C1CCOCC1 [Example 157, 2-(4-(4-(Ethyl(tetrahydro-2H-pyran-4-yl)amino)-3-(3-(p-tolyl)ureido)phenyl)tetrahydro-2H-pyran-4-yl)acetic acid]
< 5 nM | CCOc1ncc(Nc2cc([C@H](CC)Cc3nnn[nH]3)ccc2N(CC)C2CCOCC2)cn1 [Example 1339, (R)-4-(1-(1H-Tetrazol-5-yl)butan-2-yl)-N2-(2-ethoxypyrimidin-5-yl)-N1-ethyl-N1-(tetrahydro-2H-pyran-4-yl)benzene-1,2-diamine]
< 5 nM | CCOc1ncc(Nc2cc(C(CC)(CC)CC(=O)O)ccc2N(CC)C2CCOCC2)cn1 [Example 29, 3-(3-((2-ethoxypyrimidin-5-yl)amino)-4-(ethyl(tetrahydro-2H-pyran-4-yl)amino)phenyl)-3-ethylpentanoic acid]
< 50 nM | CCCN(c1ccc(C(C)(C)CC(=O)O)cc1NC(=O)Nc1ccc(C)cc1)C1CCOCC1 [Example 25, 3-Methyl-3-(4-(propyl(tetrahydro-2H-pyran-4-yl)amino)-3-(3-(p-tolyl)ureido)phenyl)butanoic acid]
> 50 nM and < 50 nM | CCC(CC(=O)O)c1ccc(N2CCOC(C)(C)C2)c(Nc2ccc(C#N)cc2)c1 (single isomer, unassigned) [Example 1320, 3-(3-((4-cyanophenyl)amino)-4-(2,2-dimethylmorpholino)phenyl)pentanoic acid]
> 50 nM | CCN(c1ccc(C(CC(=O)O)C2CC2)cc1NC(=O)Nc1ccc(C#N)cc1)C1CCOCC1 (single isomer, unassigned) [Example 255 Enantiomer 1, 3-(3-(3-(4-Cyanophenyl)ureido)-4-(ethyl(tetrahydro-2H-pyran-4-yl)amino)phenyl)-3-cyclopropylpropanoic acid]
< 5 nM | CCCN(c1ccc([C@@H](CC)CC(=O)O)cc1NC(=O)Nc1ccc(Cl)cc1F)C1CCOCC1 (single isomer, unassigned) [Example 544]
< 5 nM | CCC(CC(=O)O)c1ccc(N(CCOC)C2CCOCC2)c(Nc2ccc(C#N)cc2)c1 (single isomer, unassigned) [Example 1258, 3-(3-((4-cyanophenyl)amino)-4-((2-methoxyethyl)(tetrahydro-2H-pyran-4-yl)amino)phenyl)pentanoic acid]
< 5 nM | COCC(CC(=O)O)c1cc(F)c(N(CC(C)C)CC(C)C)c(Nc2ccc(Cl)cc2)c1 (single isomer, unassigned) [Example 920, 3-(3-((4-Chlorophenyl)amino)-4-(diisobutylamino)-5-fluorophenyl)-4-methoxybutanoic acid]
< 50 nM | CCCN(c1ccc(C(COC)CC(=O)O)cc1Nc1ccc(Cl)cc1)C1CCS(=O)(=O)CC1 (single isomer, unassigned) [Example 183, 3-(3-((4-chlorophenyl)amino)-4-((1,1-dioxidotetrahydro-2H-thiopyran-4-yl)(propyl)amino)phenyl)-4-methoxybutanoic acid]
< 5 nM | CCCN(c1ccc(C(COC)CC(=O)O)cc1Nc1ccc(F)cc1)C1CCS(=O)(=O)CC1 (single isomer, unassigned) [Example 184, 3-(4-((1,1-dioxidotetrahydro-2H-thiopyran-4-yl)(propyl)amino)-3-((4-fluorophenyl)amino)phenyl)-4-methoxybutanoic acid]
> 50 nM | CCN(c1ccc([C@@H](COC)CC(=O)O)cc1Nc1ccc(S(=O)(=O)CC)cc1)C1CCOCC1 (single isomer, unassigned) [Example 386]
> 50 nM | CC[C@@H](CC(=O)O)c1ccc(N(CC)C2CCOCC2)c(Nc2ccc(N(C)C)nc2)c1 (single isomer, unassigned) [Example 463]
< 5 nM | CCC(CC(=O)O)c1cnc(N(CC)C2CCOCC2)c(Nc2ccc(C#N)cc2)c1 (racemic) [Example 1379]
> 50 nM | COCC(CC(=O)O)c1ccc(N2CCOC[C@@H]2C(C)C)c(NC(=O)Nc2ccc(C#N)cc2)c1 (single isomer, unassigned) [Example 932]
> 50 nM | COCC(CC(=O)O)c1ccc(N(C)C2CCOCC2)c(Nc2ccc(C#N)cn2)c1 (single isomer, unassigned) [Example 881, 3-(3-((5-cyanopyridin-2-yl)amino)-4-(methyl (tetrahydro-2H-pyran-4-yl)amino)phenyl)-4-methoxybutanoic acid]
> 50 nM | C[C@@H]1CN(c2ccc(C(CC(=O)O)C3CC3)cc2NC(=O)Nc2ccc(Cl)cc2F)C[C@H](C)O1 (single isomer, unassigned) [Example 252]
< 5 nM | CCN(c1ccc([C@@H](COC)CC(=O)O)cc1Nc1ccc(Cl)cn1)C1CCOCC1 (single isomer, unassigned) [Example 356]

IC50 | Structure (SMILES)
< 5 nM | CCOc1ncc(Nc2cc(C(CC)CC(=O)O)ccc2N(CC)C2CCCOC2)cn1 (single isomer, unassigned) [Example 63, 3-(3-((2-ethoxypyrimidin-5-yl)amino)-4-(ethyl(tetrahydro-2H-pyran-3-yl)amino)phenyl)pentanoic acid]
> 50 nM | CCOc1ncc(Nc2cc(C(CC)CC(C)(C)O)ccc2N2CCC(c3ccccc3)CC2)cn1 (single isomer, unassigned) [Example 1349, 4-(3-((2-Ethoxypyrimidin-5-yl)amino)-4-(4-phenylpiperidin-1-yl)phenyl)-2-methylhexan-2-ol]
< 5 nM | CCC(CC(=O)O)c1ccc(N2CCOC[C@H]2C(C)C)c(Nc2ccc(F)cc2)c1 (single isomer, unassigned) [Example 889]
< 5 nM | CCN(c1ccc(C(C)(C)CC(=O)O)cc1Nc1ccc(Cl)cc1)C1CCS(=O)(=O)CC1 [Example 180, 3-(3-((4-chlorophenyl)amino)-4-((1,1-dioxidotetrahydro-2H-thiopyran-4-yl)(ethyl)amino)phenyl)-3-methylbutanoic acid]
< 5 nM | CC[C@H](CC(=O)O)c1ccc(N(CC)C2CCOCC2)c(Nc2cnc(OC)cn2)c1 (single isomer, unassigned) [Example 507]
< 5 nM | CCN(c1c(F)cc(C(COC)CC(=O)O)cc1Nc1ccc(C#N)cc1)C1CCOCC1 (single isomer, unassigned) [Example 916, 3-(3-((4-Cyanophenyl)amino)-4-(ethyl(tetrahydro-2H-pyran-4-yl)amino)-5-fluorophenyl)-4-methoxybutanoic acid]
> 50 nM | CCN(c1ccc(C(C)CC(=O)O)cc1Nc1cnc(OC(C)C)nc1)C1CCOCC1 (single isomer, unassigned) [Example 622, 3-(4-(ethyl(tetrahydro-2H-pyran-4-yl)amino)-3-((2-isopropoxypyrimidin-5-yl)amino)phenyl)butanoic acid]
< 5 nM | CCC(CC(=O)O)c1ccc(N(C)C2CCOCC2)c(Nc2ccc(Cl)cc2)c1 (single isomer, unassigned) [Example 867, 3-(3-((4-Chlorophenyl)amino)-4-(methyl(tetrahydro-2H-pyran-4-yl)amino)phenyl)pentanoic acid]
< 50 nM | CCC(CC(=O)O)c1ccc(N(C)C2CCOCC2)c(Nc2ccc(C#N)cc2)c1 (single isomer, unassigned) [Example 866, 3-(3-((4-Cyanophenyl)amino)-4-(methyl(tetrahydro-2H-pyran-4-yl)amino)phenyl)pentanoic acid]
< 5 nM | COCCN(c1ccc(C(C)(C)CC(=O)O)cc1Nc1ccc(Cl)cc1)C1CCOCC1 [Example 15, 3-(3-((4-Chlorophenyl)amino)-4-((2-methoxyethyl)(tetrahydro-2H-pyran-4-yl)amino)phenyl)-3-methylbutanoic acid]
> 50 nM | COCC(CC(=O)O)c1ccc(N2CCOC(C)(C)C2)c(Nc2ccc(C#N)cc2)c1 (single isomer, unassigned) [Example 1316, 3-(3-((4-cyanophenyl)amino)-4-(2,2-dimethylmorpholino)phenyl)-4-methoxybutanoic acid]
< 50 nM | CC(CC(=O)O)c1ccc(N(CC(C)(C)O)C2CCCCC2)c(Nc2ccc3c(c2)OC(F)(F)O3)c1 (single isomer, unassigned) [Example 49, 3-(4-(cyclohexyl(2-hydroxy-2-methylpropyl)amino)-3-((2,2-difluorobenzo[d][1,3]dioxol-5-yl)amino)phenyl)butanoic acid]
< 50 nM | CCC(CC(=O)O)c1ccc(N2C[C@@H]3C[C@H]2CN3C(=O)OC)c(Nc2ccc(C#N)cc2)c1 (single isomer, unassigned) [Example 449]
> 50 nM | COc1ccc(Nc2cc(C(CC(=O)O)C3CC3)ccc2N2C[C@@H](C)O[C@@H](C)C2)cn1 (single isomer, unassigned) [Example 246]
> 50 nM | CCC1COCCN1c1ccc([C@@H](COC)CC(=O)O)cc1Nc1ccc(Cl)cc1 (single isomer, unassigned) [Example 1286]
> 50 nM | CCOc1ncc(Nc2cc(C(CC)CC(=O)O)ccc2N2C[C@@H]3C[C@H]2CN3C(=O)OC(C)(C)C)cn1 (single isomer, unassigned) [Example 448]
< 50 nM | CCCN(c1ccc(C(CC)CC(=O)O)cc1NC(=O)Nc1ccc(C)cc1)C1CCOCC1 (single isomer, unassigned) [Example 557 Enantiomer 1, 3-(4-(Propyl(tetrahydro-2H-pyran-4-yl)amino)-3-(3-(p-tolyl)ureido)phenyl)pentanoic acid]
> 50 nM | CCC1COCCN1c1ccc([C@@H](COC)CC(=O)O)cc1Nc1ccc(C#N)cc1 (single isomer, unassigned) [Example 1281]
< 50 nM | CCC1COCCN1c1ccc([C@H](COC)CC(=O)O)cc1Nc1ccc(C#N)cc1 (single isomer, unassigned) [Example 1303]
